Laboratory results published in paper PMC4881381, “Subcellular Localization of Galloylated Catechins in Tea Plants [Camellia sinensis (L.) O. Kuntze] Assessed via Immunohistochemistry” (Frontiers in Plant Science, 2016).

Target: T1, anti-galloylated catechin monoclonal antibody (mAb) P6C2
T1 construct: whole purified mAb (~150 kDa; 50 kDa heavy and 25 kDa light chains), biotinylated
Assay: bio-layer interferometry (ForteBio Octet Red […], SSA biosensors); direct ELISA
Assay type: binding

Compound	Kd [µM]
O=C(O[C@@H]1Cc2c(O)cc(O)cc2O[C@@H]1c1cc(O)c(O)c(O)c1)c1cc(O)c(O)c(O)c1 [EGCG, (-)-epigallocatechin-3-gallate]	9.25
O=C(O[C@@H]1Cc2c(O)cc(O)cc2O[C@@H]1c1ccc(O)c(O)c1)c1cc(O)c(O)c(O)c1 [ECG, (-)-epicatechin-3-gallate]	0.197
